Experimental data taken from patent US20210308089A1, “METHODS OF TREATING AND/OR PREVENTING VIRAL INFECTIONS AND/OR DISEASES CAUSED BY VIRUSES IN A SUBJECT IN NEED THEREOF” (priority 2020, published 2021).

Tested on: patients of the REDUCE-IT and earlier EPA placebo-controlled trials
Assay type: in vivo, human
Details: R-I

In the case of `CC/C=C\C/C=C\C/C=C\C/C=C\C/C=C\CCCC(=O)OCC` [icosapent ethyl, eicosapentaenoic acid ethyl ester], the “ARR: Platelet count: PCS Low <100 × 10^3/uL” value was −0.6%, the “ARR: SBP High (≥160 mmHg)” value was −1.7% and the “ARR: SBP High and rose ≥20 mmHg” value was −1.1%. For the same compound, the “ARR: SBP Low (≤90 mmHg)” value was 0.5%, the “ARR: SBP dropped ≥20 mmHg” value was 2.6% and the “ARR: SBP low and dropped ≥20 mmHg” value was 0.2%. For the same compound, the “ARR: SBP rose ≥20 mmHg” value was −0.7%, the “ARR: Urate high (Day 120)” value was 4.4% and the “ARR: Urate high (Day 360)” value was 3.9%. For the same compound, the “ARR: Urate high (Day 720)” value was 3.4%, the “ARR: Urate high (Day 1080)” value was 1.2% and the “ARR: Urate high (Day 1440)” value was 1.3%. The “ARR: Urate high (Day 1800)” value was 1.0%, the “ARR: Urate shift: normal to high (Day 120)” value was 2.8% and the “ARR: Urate shift: normal to high (Day 360)” value was 3.0%. The “ARR: Urate shift: normal to high (Day 720)” value was 2.5%, the “ARR: Urate shift: normal to high (Day 1080)” value was 0.8% and the “ARR: Urate shift: normal to high (Day 1440)” value was 0.6%. The “ARR: Urate shift: normal to high (Day 1800)” value was 0.2%, the “ARR: Urate shift: normal to low (Day 120)” value was 0.1% and the “ARR: Urate shift: normal to low (Day 360)” value was −0.1%. For the same compound, the “ARR: Urate shift: normal to low (Day 720)” value was −0.2%, the “ARR: Urate shift: normal to low (Day 1080)” value was −0.1% and the “ARR: Urate shift: normal to low (Day 1440)” value was −0.4%. The “ARR: Uric acid PCS High >7.5 mg/dL (Women)” value was 0.8%, the “ARR: Uric acid PCS High >8.0 mg/dL (Men)” value was 4.2% and the “ARR: Uric acid PCS Low <1.9 mg/dL (Women)” value was 0.0%. The “ARR: Uric acid PCS Low <2.5 mg/dL (Men)” value was −0.2%, the “NNT: ALP high (Day 120)” value was 67 and the “NNT: ALP high (Day 360)” value was 50. For the same compound, the “NNT: ALP high (Day 720)” value was 41, the “NNT: ALP high (Day 1080)” value was 33 and the “NNT: ALP high (Day 1440)” value was 34. For the same compound, the “NNT: ALP high (Day 1800)” value was 37, the “NNT: ALP shift: normal to high (Day 120)” value was 78 and the “NNT: ALP shift: normal to high (Day 360)” value was 54. For the same compound, the “NNT: ALP shift: normal to high (Day 720)” value was 39, the “NNT: ALP shift: normal to high (Day 1080)” value was 34 and the “NNT: ALP shift: normal to high (Day 1440)” value was 37. The “NNT: ALP shift: normal to high (Day 1800)” value was 39, the “NNT: ALP shift: normal to low (Day 120)” value was −267 and the “NNT: ALP shift: normal to low (Day 360)” value was −359. For the same compound, the “NNT: ALP shift: normal to low (Day 720)” value was −252, the “NNT: ALP shift: normal to low (Day 1080)” value was −360 and the “NNT: ALP shift: normal to low (Day 1440)” value was −956. For the same compound, the “NNT: Albumin high (Day 120)” value was −133, the “NNT: Albumin high (Day 360)” value was −138 and the “NNT: Albumin high (Day 720)” value was −156. For the same compound, the “NNT: Albumin high (Day 1080)” value was −140, the “NNT: Albumin high (Day 1440)” value was −132 and the “NNT: Albumin shift: normal to high (Day 120)” value was −123. For the same compound, the “NNT: Albumin shift: normal to high (Day 360)” value was −137, the “NNT: Albumin shift: normal to high (Day 720)” value was −140 and the “NNT: Albumin shift: normal to high (Day 1080)” value was −248. For the same compound, the “NNT: Albumin shift: normal to high (Day 1440)” value was −145, the “NNT: Bilirubin >1x ULN to 2x ULN” value was −29 and the “NNT: Bilirubin >2x ULN to 3x ULN” value was −497. For the same compound, the “NNT: Bilirubin high (Day 120)” value was −42, the “NNT: Bilirubin high (Day 360)” value was −50 and the “NNT: Bilirubin high (Day 720)” value was −38. For the same compound, the “NNT: Bilirubin high (Day 1080)” value was −50, the “NNT: Bilirubin high (Day 1440)” value was −40 and the “NNT: Bilirubin high (Day 1800)” value was −43. The “NNT: Bilirubin shift: normal to high (Day 120)” value was −77, the “NNT: Bilirubin shift: normal to high (Day 360)” value was −80 and the “NNT: Bilirubin shift: normal to high (Day 720)” value was −76. For the same compound, the “NNT: Bilirubin shift: normal to high (Day 1080)” value was −95, the “NNT: Bilirubin shift: normal to high (Day 1440)” value was −57 and the “NNT: Bilirubin shift: normal to high (Day 1800)” value was −81. For the same compound, the “NNT: Calcium high (Day 120)” value was 430, the “NNT: Calcium high (Day 360)” value was 1019 and the “NNT: Calcium high (Day 720)” value was 325. The “NNT: Calcium low (Day 120)” value was −1944, the “NNT: Calcium low (Day 360)” value was −410 and the “NNT: Calcium low (Day 720)” value was −567. The “NNT: DBP High (≥100 mmHg)” value was −165, the “NNT: DBP High and Rose ≥10 mmHg” value was −264 and the “NNT: DBP Low (≤50 mmHG)” value was −794. The “NNT: DBP Low and dropped ≥10 mmHg” value was −3916, the “NNT: DBP dropped ≥10 mmHG” value was −32 and the “NNT: DBP rose ≥10 mmHg” value was 158. The “NNT: High platelets (Day 720)” value was −162, the “NNT: Low platelets (Day 360)” value was 54 and the “NNT: Low platelets (Day 720)” value was 144. For the same compound, the “NNT: Low platelets (Day 1080)” value was 85, the “NNT: Platelet count: PCS Low <100 × 10^3/uL” value was 166 and the “NNT: SBP High (≥160 mmHg)” value was 58. For the same compound, the “NNT: SBP High and rose ≥20 mmHg” value was 87, the “NNT: SBP Low (≤90 mmHg)” value was −221 and the “NNT: SBP dropped ≥20 mmHg” value was −38. The “NNT: SBP low and dropped ≥20 mmHg” value was −497, the “NNT: SBP rose ≥20 mmHg” value was 140 and the “NNT: Urate high (Day 120)” value was −22. For the same compound, the “NNT: Urate high (Day 360)” value was −26, the “NNT: Urate high (Day 720)” value was −29 and the “NNT: Urate high (Day 1080)” value was −81. The “NNT: Urate high (Day 1440)” value was −76, the “NNT: Urate high (Day 1800)” value was −103 and the “NNT: Urate shift: normal to high (Day 120)” value was −36. For the same compound, the “NNT: Urate shift: normal to high (Day 360)” value was −33, the “NNT: Urate shift: normal to high (Day 720)” value was −39 and the “NNT: Urate shift: normal to high (Day 1080)” value was −127. For the same compound, the “NNT: Urate shift: normal to high (Day 1440)” value was −160, the “NNT: Urate shift: normal to high (Day 1800)” value was −422 and the “NNT: Urate shift: normal to low (Day 120)” value was −1647. For the same compound, the “NNT: Urate shift: normal to low (Day 360)” value was 1418, the “NNT: Urate shift: normal to low (Day 720)” value was 533 and the “NNT: Urate shift: normal to low (Day 1080)” value was 740. For the same compound, the “NNT: Urate shift: normal to low (Day 1440)” value was 280, the “NNT: Uric acid PCS High >7.5 mg/dL (Women)” value was −120 and the “NNT: Uric acid PCS High >8.0 mg/dL (Men)” value was −24. The “NNT: Uric acid PCS Low <1.9 mg/dL (Women)” value was −1.58e+07, the “NNT: Uric acid PCS Low <2.5 mg/dL (Men)” value was 569 and the “Placebo-Adjusted % Change: Alkaline phosphatase (Day 120)” value was −10.4%. The “Placebo-Adjusted % Change: Alkaline phosphatase (Day 360)” value was −12.5%, the “Placebo-Adjusted % Change: Alkaline phosphatase (Day 720)” value was −12.6% and the “Placebo-Adjusted % Change: Alkaline phosphatase (Day 1080)” value was −14.1%. The “Placebo-Adjusted % Change: Alkaline phosphatase (Day 1440)” value was −13.1%, the “Placebo-Adjusted % Change: DBP (Day 120)” value was “−.9%” and the “Placebo-Adjusted % Change: DBP (Day 360)” value was “−.8%”. The “Placebo-Adjusted % Change: DBP (Day 720)” value was “−.6%”, the “Placebo-Adjusted % Change: DBP (Day 1080)” value was “−.5%” and the “Placebo-Adjusted % Change: DBP (Day 1440)” value was “−.4%”. The “Placebo-Adjusted % Change: SBP (Day 120)” value was −1%, the “Placebo-Adjusted % Change: SBP (Day 360)” value was −1.1% and the “Placebo-Adjusted % Change: SBP (Day 720)” value was −1%. The “Placebo-Adjusted % Change: SBP (Day 1080)” value was −1.1%, the “Placebo-Adjusted % Change: SBP (Day 1440)” value was “−.9%” and the “Placebo-Adjusted % Change: Urate (Day 120)” value was “+4.31%”. The “Placebo-Adjusted % Change: Urate (Day 360)” value was “+4.07%”, the “Placebo-Adjusted % Change: Urate (Day 720)” value was “+3.66%” and the “Placebo-Adjusted % Change: Urate (Day 1080)” value was “+2.94%”. For the same compound, the “Placebo-Adjusted % Change: Urate (Day 1440)” value was “+3.23%”, the “Risk Ratio (95% CI): ALP high (Day 120)” value was 0.623 (0.485 to 0.801) 2 and the “Risk Ratio (95% CI): ALP high (Day 360)” value was 0.542 (0.420 to 0.700) 3. For the same compound, the “Risk Ratio (95% CI): ALP high (Day 720)” value was 0.568 (0.449 to 0.717) 3, the “Risk Ratio (95% CI): ALP high (Day 1080)” value was 0.486 (0.375 to 0.630) 3 and the “Risk Ratio (95% CI): ALP high (Day 1440)” value was 0.483 (0.362 to 0.644) 3. For the same compound, the “Risk Ratio (95% CI): ALP high (Day 1800)” value was 0.527 (0.362 to 0.767) 3, the “Risk Ratio (95% CI): ALP shift: normal to high (Day 120)” value was 0.401 (0.267 to 0.603) 3 and the “Risk Ratio (95% CI): ALP shift: normal to high (Day 360)” value was 0.335 (0.227 to 0.497) 4. For the same compound, the “Risk Ratio (95% CI): ALP shift: normal to high (Day 720)” value was 0.397 (0.291 to 0.541) 4.
